# Experimental data: patent publication US9636419B2, “Targeting multiple receptors on a cell surface for specific cell targeting” (The University of Kansas, priority 2013, dated 2017)
# Entries after “also recorded” stand apart in the source; their conditions may differ. Non-standard residues stand in square brackets, D forms with d. *: point of attachment. Cholesteryloxycarbonyl = CC(C)CCC[C@@H](C)[C@H]1CC[C@H]2[C@@H]3CC=C4C[C@@H](OC(=O)*)CC[C@]4(C)[C@H]3CC[C@]12C; mPEG = not defined here; Aib = CC(C)(N)C(=O)O; βAla = NCCC(=O)O
# Legend:
# [1] = tested on: PC3-PSMA cells; assay: Binding, uptake and co-localization of fluorophore-labeled aptamers (confocal microscopy, flow cytometry); assay type: cell-based; conditions: for internalization by cells: AF488-A9, DY650-E07; for colocalization in endosomes: aptamers combined, co-incubation 1 h
# Method: To create targeted binary cytotoxins that selectively kill PSMA+/EGFR+ prostate cancer cells, the agents both accumulate in the same endosomal compartments.
# Panels B-D show fluorescence micrographs of AF488-labled anti-PSMA apamer (Panel B) and a Dy650-labeled anti-EGFR aptamer (Panel C) following co-incubation with PC3-PSMA cells for 1 h. […] The binary agents are designed to selectively kill PSMA+/EGFR+ prostate cancer cells through the mechanism proposed here both accumulate in common endosomal compartments.
# [2] = tested on: SKBR3 breast cancer cells; assay: Release of disulfide-linked fluorophore from EGF or Herceptin conjugates, confocal microscopy; assay type: cell-based; conditions: fluorophore linked via disulfide to Herceptin or EGF, ED86 at 10-fold higher concentration
# Method: In the middle panels, a non-targeted endosome disruptive peptide (ED86) was added. In the bottom panels, a targeted cholesterol modified endosome disruptive peptide (ED108) was added. […] In conjunction with our previous studies of disulfide-linked colchinol conjugates (see provisional application), these studies provide evidence that targeting of two distinct cell surface entities (e.g., two receptors or a receptor and membrane) with a cytotoxic conjugate and an endosome disruptive peptide can confer a synthetic lethal-type effect against cancer cell lines.
# [3] = tested on: SKBR3 breast cancer cells
# Method: Cellular viability was analyzed by flow cytometry after 72 h.
Substance,internalization by cells [1],colocalization in endosomes [1],release of disulfide-linked fluorophore into cytoplasm [2],effect on cytotoxicity of the Herceptin-colchinol methyl ether disulfide conjugate [3]
"E07: EGFR-binding aptamer, 2′F RNA (GGACGGAUUUAAUCGCCGUAGAAAGCAUGUCAAAGCCGGAACCGUCC; 2'-fluoro modified RNA, pattern not given here) [Compound E07]",internalized by PC3-PSMA cells,colocalize in endosomes,–,–
H2N-(Aib)4-(Trp)2-Ala-Trp-Tyr-(Pro)2-Val-Val-CONH2 (H-[Aib][Aib][Aib][Aib]WWAWYPPVV-NH2; SMILES CC(C)[C@H](NC(=O)[C@@H](NC(=O)[C@@H]1CCCN1C(=O)[C@@H]1CCCN1C(=O)[C@H](Cc1ccc(O)cc1)NC(=O)[C@H](Cc1c[nH]c2ccccc12)NC(=O)[C@H](C)NC(=O)[C@H](Cc1c[nH]c2ccccc12)NC(=O)[C@H](Cc1c[nH]c2ccccc12)NC(=O)C(C)(C)NC(=O)C(C)(C)NC(=O)C(C)(C)NC(=O)C(C)(C)N)C(C)C)C(N)=O) [ED86],–,–,release was not observed,–
Cholesterol carbamate-(βAla)2-(Glu)2-mPEG-(βAla)4-(Aib)4-(Trp)2-Ala-Trp-Tyr-(Pro)2-Val-Val-CONH2 (Cholesteryloxycarbonyl-[βAla][βAla]EE[mPEG][βAla][βAla][βAla][βAla][Aib][Aib][Aib][Aib]WWAWYPPVV-NH2; reading uncertain) [ED108],–,–,Release of the fluorophore from EGF or Herceptin into the cytosol and nucleus was observed; also recorded: release of a disulfide-linked fluorophore from the antibody Herceptin into the cytoplasm,synergistically enhances cytotoxicity
"A9: PSMA-binding aptamer, 2′F RNA (GGGACCGAAAAAGACCUGACUUCUAUACUAAGUCUACGUUCCC; 2'-fluoro modified RNA, pattern not given here) [Compound A9]",internalized by PC3-PSMA cells,colocalize in endosomes,–,–
